{"source": "patent US8846125B2", "about": "“Enaminocarbonyl compounds and their use” (Instytut Chemii Organicznej, Polska Akademia Nauk, priority 2009, dated 2014)", "system": "sweet taste of saccharose (panel members)", "assay": "Inhibition of sweet taste of a saccharose solution, qualitative panel evaluation", "type": "in vivo, healthy men", "design": "key to Inhibition of sweet taste: ++: complete inhibition of sweet taste; −: lack of inhibition of sweet taste", "details": "100 mg saccharose in 5 ml 20% aqueous ethanol plus 100 mg compound, vs saccharose solution without compound", "protocol": "Evaluation of the degree of sweetness of the compounds according to the present invention was performed using a 5-volunteer panel—healthy men—henceforth referred to as panel members. All panel members were informed of the need to maintain safety procedures during the evaluation of the compounds according to the present invention, In particular, of the need to avoid swallowing the tested solutions. Each of the panel members received a 10 ml sample of a solution in a small vial and rinsed out their mouth with the entire contents of the vial for 20 seconds and then spit out the tested solution. Next, they carefully rinsed out their mouth with a large volume of distilled water (at least 150 ml) for at least 30 seconds. When the panel member felt that they no longer perceived any taste, they could proceed with the evaluation of the next solution.\nThe inhibition of sweet taste of sweet substances or mixtures thereof by inhibitors of sweet taste according to the present invention was examine qualitatively according to the following procedure. Two samples of saccharose, each of 100 mg, are dissolved in 5 ml 20% of aqueous ethanol, and then one solution is supplemented with 100 mg of a compound of an example according to the present invention (compounds from examples 3, 5, and 8). Next, the taste of both solutions is evaluated using the procedure presented above, for the qualitative perception of a sweet taste. […] The study was also performed on compounds from comparative examples 1-19."}
{"smiles": "CC[C@H](NC=C1CCOC1=O)c1ccccc1", "note": "[Example 5, (S)-3-(1-phenylpropylo)aminomethylenedihydrofuran-2-one]", "values": [{"measurement": "Inhibition of sweet taste", "value": "++"}, {"measurement": "Taste of the saccharose solution with the compound", "value": "practically not sweet at all"}]}
